Active and inactive are the calls of the source. No cut-off for these calls is given here.
Legend:
[1] = target: T1, Peroxisome proliferator-activated receptor alpha (Homo sapiens, UniProt Q07869); experiment: Activity at human PPAR alpha by cell-based transactivation assay
T1 sequence (Q07869 whole entry): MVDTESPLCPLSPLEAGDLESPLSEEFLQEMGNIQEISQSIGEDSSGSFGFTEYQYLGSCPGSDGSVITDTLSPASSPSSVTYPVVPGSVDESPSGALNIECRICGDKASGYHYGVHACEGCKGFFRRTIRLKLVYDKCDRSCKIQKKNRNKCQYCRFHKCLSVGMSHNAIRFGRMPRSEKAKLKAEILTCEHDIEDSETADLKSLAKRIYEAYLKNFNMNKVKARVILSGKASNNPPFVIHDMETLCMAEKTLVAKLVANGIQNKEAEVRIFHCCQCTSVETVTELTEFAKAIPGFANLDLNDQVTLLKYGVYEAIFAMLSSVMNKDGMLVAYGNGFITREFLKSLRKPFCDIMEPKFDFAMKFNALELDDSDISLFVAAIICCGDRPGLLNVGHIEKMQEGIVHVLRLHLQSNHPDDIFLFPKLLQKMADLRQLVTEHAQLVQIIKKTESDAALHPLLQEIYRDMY

[2] = target: T2, Peroxisome proliferator-activated receptor gamma (Homo sapiens, UniProt P37231); experiment: Activity at human PPAR gamma by cell-based transactivation assay
T2 sequence (P37231 whole entry): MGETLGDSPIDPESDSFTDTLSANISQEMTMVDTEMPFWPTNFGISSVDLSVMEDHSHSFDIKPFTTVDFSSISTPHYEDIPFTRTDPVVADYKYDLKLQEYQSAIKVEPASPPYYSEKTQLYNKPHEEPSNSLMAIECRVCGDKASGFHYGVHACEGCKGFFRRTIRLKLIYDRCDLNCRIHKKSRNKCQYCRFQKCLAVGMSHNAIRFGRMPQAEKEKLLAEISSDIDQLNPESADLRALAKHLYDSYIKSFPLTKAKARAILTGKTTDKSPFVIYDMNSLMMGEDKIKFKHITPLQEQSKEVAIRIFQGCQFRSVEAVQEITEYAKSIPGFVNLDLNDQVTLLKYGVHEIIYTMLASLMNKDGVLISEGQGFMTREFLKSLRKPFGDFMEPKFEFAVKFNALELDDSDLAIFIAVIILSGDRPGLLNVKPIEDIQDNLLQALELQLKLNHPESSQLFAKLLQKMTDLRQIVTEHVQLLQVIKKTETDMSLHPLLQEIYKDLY

[3] = target: T3, Peroxisome proliferator-activated receptor delta (Homo sapiens, UniProt Q03181); experiment: Activity at human PPAR delta by cell-based transactivation assay
T3 sequence (Q03181 whole entry): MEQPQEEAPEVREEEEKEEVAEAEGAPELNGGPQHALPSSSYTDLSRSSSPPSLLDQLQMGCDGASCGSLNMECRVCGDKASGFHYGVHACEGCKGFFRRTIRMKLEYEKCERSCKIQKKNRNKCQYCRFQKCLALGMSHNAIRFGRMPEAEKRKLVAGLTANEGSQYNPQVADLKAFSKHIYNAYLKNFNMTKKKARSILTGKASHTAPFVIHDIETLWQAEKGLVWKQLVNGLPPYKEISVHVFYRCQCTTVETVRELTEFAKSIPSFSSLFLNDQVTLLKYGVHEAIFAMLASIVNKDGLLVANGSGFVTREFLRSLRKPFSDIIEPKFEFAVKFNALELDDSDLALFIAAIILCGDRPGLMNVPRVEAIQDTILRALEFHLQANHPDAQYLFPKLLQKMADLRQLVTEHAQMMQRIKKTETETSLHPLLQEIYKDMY

[4] = Stability in mouse liver microsomes; type: ADME, Microsome
Liver microsomes [5] = experiment: Stability in rat liver microsomes; type: ADME, Microsome
Liver microsomes [6] = experiment: Stability in human liver microsomes; type: ADME, Microsome
[7] = Cmax in C57BL/6 mouse at 20 mg/kg, po; type: ADME, organism-based; set-up: dose 20 mg/kg, route oral; details: in vivo
[8] = Half life in C57BL/6 mouse at 20 mg/kg, po; type: ADME, organism-based; set-up: dose 20 mg/kg, route oral; details: in vivo
Mus musculus [9] = experiment: Regulation of PDK4 gene expression in C57BL/6 mouse skeletal muscle at 10 mg/kg, po; type: functional, organism-based; set-up: dose 10 mg/kg; details: Muscle tissue
Mus musculus [10] = experiment: Regulation of ApoAIV gene expression in C57BL/6 mouse jejunum at 10 mg/kg, po; type: functional, organism-based; set-up: dose 10 mg/kg
Mus musculus [11] = experiment: Regulation of UCP3 gene expression in C57BL/6 mouse skeletal muscle at 10 mg/kg, po; type: functional, organism-based; set-up: dose 10 mg/kg; details: Muscle tissue

## O=C(O)CCc1cccc(-c2noc(-c3ccccc3)c2C(=O)NCCOc2ccc(Cl)cc2Cl)c1
[1]
  EC50: > 10 µM
[2]
  EC50: > 10 µM
[3]
  EC50: 0.97 µM
[4]
  Stability: Stable
Liver microsomes [5]
  Stability: Stable
Liver microsomes [6]
  Stability: Stable

## CC(C)c1onc(-c2cccc(CC(=O)O)c2)c1C(=O)NCCOc1ccc(Cl)cc1Cl
[1]
  EC50: > 10 µM
[2]
  EC50: > 10 µM
[3]
  EC50: 1.07 µM
[4]
  Stability: Stable
Liver microsomes [5]
  Stability: Stable
Liver microsomes [6]
  Stability: Stable

## O=C(O)Cc1cccc(-c2noc(-c3ccco3)c2C(=O)NCCOc2ccc(Cl)cc2Cl)c1
[1]
  EC50: > 10 µM
[2]
  EC50: > 10 µM
[3]
  EC50: 0.09 µM
[7]
  Cmax: < 300 nM
[8]
  half-life: < 0.5 h
[4]
  Stability: Stable
Liver microsomes [5]
  Stability: Stable
Liver microsomes [6]
  Stability: Stable

## O=C(O)Cc1ccc(OCc2noc(-c3ccccc3)c2C(=O)NCCOc2ccc(Cl)cc2Cl)c(Cl)c1
[1]
  EC50: > 10 µM
[2]
  EC50: > 10 µM
[3]
  EC50: > 10 µM
[4]
  Stability: Stable
Liver microsomes [5]
  Stability: Stable
Liver microsomes [6]
  Stability: Stable

## Cc1ccccc1-c1onc(-c2cccc(CC(=O)O)c2)c1C(=O)NCCOc1ccc(Cl)cc1Cl
[1]
  EC50: > 10 µM
[2]
  EC50: > 10 µM
[3]
  EC50: 0.05 µM
[7]
  Cmax: 1900 nM
[8]
  half-life: 1.5 h
[4]
  Stability: Stable
Liver microsomes [5]
  Stability: Stable
Liver microsomes [6]
  Stability: Stable

## O=C(O)Cc1ccc(-c2noc(-c3ccccc3)c2C(=O)NCCOc2ccc(Cl)cc2Cl)cc1
[1]
  EC50: > 10 µM
[2]
  EC50: > 10 µM
[3]
  EC50: 0.72 µM
[4]
  Stability: Stable
Liver microsomes [5]
  Stability: Stable
Liver microsomes [6]
  Stability: Stable

## O=C(O)c1ccc(-c2noc(-c3ccccc3)c2C(=O)NCCOc2ccc(Cl)cc2Cl)cc1
[1]
  EC50: > 10 µM
[2]
  EC50: > 10 µM
[3]
  EC50: > 10 µM
[4]
  Stability: Stable
Liver microsomes [5]
  Stability: Stable
Liver microsomes [6]
  Stability: Stable

## O=C(O)Cc1ccc(-c2noc(-c3ccccc3)c2C(=O)NCCOc2ccc(Cl)cc2Cl)c(Cl)c1
[1]
  EC50: > 10 µM
[2]
  EC50: > 10 µM
[7]
  Cmax: < 300 nM
[8]
  half-life: < 0.5 h
[4]
  Stability: Stable
Liver microsomes [5]
  Stability: Stable
Liver microsomes [6]
  Stability: Stable

## O=C(O)Cc1cccc(-c2noc(-c3ccccc3)c2C(=O)NCCOc2ccc(Cl)cc2Cl)c1
[1]
  EC50: > 10 µM
[2]
  EC50: > 10 µM
[3]
  EC50: 0.07 µM
[7]
  Cmax: 5100 nM
[8]
  half-life: 3.1 h
Mus musculus [9]
  Activity: Active
Mus musculus [10]
  Activity: Active
Mus musculus [11]
  Activity: Active
[4]
  Stability: Stable
Liver microsomes [5]
  Stability: Stable
Liver microsomes [6]
  Stability: Stable

## O=C(O)Cc1cccc(-c2noc(-c3ccccc3Cl)c2C(=O)NCCOc2ccc(Cl)cc2Cl)c1
[1]
  EC50: > 10 µM
[2]
  EC50: > 10 µM
[3]
  EC50: 0.06 µM
[7]
  Cmax: 5600 nM
[8]
  half-life: 1.1 h
[4]
  Stability: Stable
Liver microsomes [5]
  Stability: Stable
Liver microsomes [6]
  Stability: Stable

## Cc1cc(-c2noc(-c3ccccc3)c2C(=O)NCCOc2ccc(Cl)cc2Cl)ccc1OCC(=O)O
[1]
  EC50: > 10 µM
[2]
  EC50: > 10 µM
[3]
  EC50: 0.2 µM
[7]
  Cmax: < 300 nM
[8]
  half-life: < 0.5 h
[4]
  Stability: Stable
Liver microsomes [5]
  Stability: Stable
Liver microsomes [6]
  Stability: Stable

## COc1ccc(CC(=O)O)cc1-c1noc(-c2ccccc2)c1C(=O)NCCOc1ccc(Cl)cc1Cl
[1]
  EC50: > 10 µM
[2]
  EC50: > 10 µM
[3]
  EC50: 0.56 µM
[4]
  Stability: Stable
Liver microsomes [5]
  Stability: Stable
Liver microsomes [6]
  Stability: Stable
